Data as given in ChEMBL document CHEMBL5331107 (J Med Chem, 2023).

Columns and labels:
[1] = target: Human immunodeficiency virus type 1 reverse transcriptase (Human immunodeficiency virus 1, UniProt Q72547); test: Inhibition of HIV-1 reverse transcriptase assessed as assessed as reduction of biotin-dUTP incorporation into […] incubated for 1 hrs by ELISA analysis
[2] = tested on: Human immunodeficiency virus 1; test: Antiviral activity against NNRTI-resistant HIV-1 harboring K103N mutant infected in human MT4 cells assessed as protection against virus-induced cytopathic effect incubated for 5 days by MTT assay; assay type: functional, organism-based; conditions: Human immunodeficiency virus 1, MT4, 120 h
[3] = tested on: Human immunodeficiency virus 1; test: Antiviral activity against NNRTI-resistant HIV-1 harboring E138K mutant infected in human MT4 cells assessed as protection against virus-induced cytopathic effect incubated for 5 days by MTT assay; assay type: functional, organism-based; conditions: Human immunodeficiency virus 1, MT4, 120 h
in vitro [4] = conditions: human, MT4 cells
Description: Selectivity index, ratio of CC50 for cytotoxicity against human MT4 cells to EC50 for antiviral activity against wildtype HIV-1 IIIB infected in human MT4 cells

in vitro [5] = conditions: human, MT4 cells; remark: listed apart in the source
Description: Selectivity index, ratio of CC50 for cytotoxicity against human MT4 cells to EC50 for antiviral activity against NNRTI-resistant HIV-1 harboring F227L and V106A mutant infected in human MT4 cells

[6] = tested on: Human immunodeficiency virus 1; test: Antiviral activity against NNRTI-resistant HIV-1 harboring L100I mutant infected in human MT4 cells assessed as protection against virus-induced cytopathic effect incubated for 5 days by MTT assay; assay type: functional, organism-based; conditions: Human immunodeficiency virus 1, MT4, 120 h
[7] = tested on: Human immunodeficiency virus 1; test: Antiviral activity against NNRTI-resistant HIV-1 harboring F227L and V106A double mutant infected in human MT4 cells assessed as protection against virus-induced cytopathic effect incubated for 5 days by MTT assay; assay type: functional, organism-based; conditions: Human immunodeficiency virus 1, MT4, 120 h
[8] = tested on: Human immunodeficiency virus 1; assay type: functional, organism-based; conditions: Human immunodeficiency virus 1, MT4, 120 h
in vitro [9] = conditions: human, MT4 cells; remark: listed apart in the source
Description: Selectivity index, ratio of CC50 for cytotoxicity against human MT4 cells to EC50 for antiviral activity against NNRTI-resistant HIV-1 harboring Y188L mutant infected in human MT4 cells

in vitro [10] = conditions: human, MT4 cells; remark: listed apart in the source
Description: Selectivity index, ratio of CC50 for cytotoxicity against human MT4 cells to EC50 for antiviral activity against NNRTI-resistant HIV-1 harboring L100I mutant infected in human MT4 cells

in vitro [11] = conditions: human, MT4 cells; remark: listed apart in the source
Description: Selectivity index, ratio of CC50 for cytotoxicity against human MT4 cells to EC50 for antiviral activity against NNRTI-resistant HIV-1 harboring Y181C mutant infected in human MT4 cells

[12] = tested on: Human immunodeficiency virus 1; test: microbe, parasite or virus in culture; conditions: Human immunodeficiency virus 1, IIIB, MT4, 120 h
Description: Antiviral activity against wild type HIV-1 IIIB infected in human MT4 cells assessed as protection against virus-induced cytopathic effect incubated for 5 days by MTT assay

[13] = Cytotoxicity against human MT4 cells assessed as reduction in cell viability incubated for 5 days by MTT assay; assay type: toxicity, cell-based; conditions: time 5 day
in vitro [14] = conditions: human, MT4 cells; remark: listed apart in the source
Description: Selectivity index, ratio of CC50 for cytotoxicity against human MT4 cells to EC50 for antiviral activity against NNRTI-resistant HIV-1 harboring K103N mutant infected in human MT4 cells

[15] = tested on: Human immunodeficiency virus 1; test: Potency index, ratio of efavirenz EC50 to test compound EC50 for antiviral activity against NNRTI-resistant HIV-1 harboring K103N mutant infected in human MT4 cells assessed as protection against virus-induced cytopathic effect incubated for 5 days by MTT assay; assay type: functional; conditions: time 5 day
[16] = tested on: Human immunodeficiency virus 1; assay type: functional, organism-based; conditions: Human immunodeficiency virus 1, MT4, 120 h; remark: listed apart in the source
in vitro [17] = conditions: human, MT4 cells; remark: listed apart in the source
Description: Selectivity index, ratio of CC50 for cytotoxicity against human MT4 cells to EC50 for antiviral activity against NNRTI-resistant HIV-1 harboring K103N and Y181C mutant infected in human MT4 cells

[18] = tested on: Human immunodeficiency virus 1; assay type: functional, organism-based; conditions: Human immunodeficiency virus 1, MT4, 120 h; remark: listed apart in the source
in vitro [19] = conditions: human, MT4 cells; remark: listed apart in the source
Description: Selectivity index, ratio of CC50 for cytotoxicity against human MT4 cells to EC50 for antiviral activity against NNRTI-resistant HIV-1 harboring E138K mutant infected in human MT4 cells

hERG = hERG (Homo sapiens, UniProt Q12809); test: Inhibition of hERG expressed in CHO cells at 0.1 uM at -80 mV holding potential by manual patch-clamp electrophysiology method relative to control; assay type: toxicity, cell-based; conditions: CHO cells expressing hERG
[20] = Water solubility of the compound in phosphate buffer at pH 7.0
[21] = Metabolic stability in human plasma assessed as half-life incubated for 120 mins by LC-MS/MS analysis; assay type: ADME, cell-free
[22] = Water solubility of the compound in phosphate buffer at pH 7.4; conditions: phosphate buffer
[23] = Metabolic stability in human liver microsomes assessed as intrinsic clearance incubated for 60 mins in the presence of NADPH by LC-MS/MS analysis; conditions: liver microsomes
[24] = Metabolic stability in human liver microsomes assessed as compound remaining measured after 60 mins in the presence of NADPH by LC-MS/MS analysis; assay type: ADME, Microsome; conditions: liver microsomes, read-out: Stability
[25] = Metabolic stability in human liver assessed as intrinsic clearance incubated for 60 mins in the presence of NADPH by LC-MS/MS analysis; assay type: ADME, tissue-based; conditions: read-out: CLH
[26] = Metabolic stability in human liver microsomes assessed as half-life incubated for 60 mins in the presence of NADPH by LC-MS/MS analysis; assay type: ADME, Microsome; conditions: liver microsomes
[27] = Metabolic stability in human plasma assessed as compound remaining incubated for 120 mins by LC-MS/MS analysis; assay type: ADME, cell-free; conditions: read-out: Stability
[28] = Metabolic stability in human plasma assessed as compound hydrolysis incubated for 120 mins by LC-MS/MS analysis; assay type: ADME, cell-free; conditions: 2 h

hERG, sequence (Q12809 whole entry): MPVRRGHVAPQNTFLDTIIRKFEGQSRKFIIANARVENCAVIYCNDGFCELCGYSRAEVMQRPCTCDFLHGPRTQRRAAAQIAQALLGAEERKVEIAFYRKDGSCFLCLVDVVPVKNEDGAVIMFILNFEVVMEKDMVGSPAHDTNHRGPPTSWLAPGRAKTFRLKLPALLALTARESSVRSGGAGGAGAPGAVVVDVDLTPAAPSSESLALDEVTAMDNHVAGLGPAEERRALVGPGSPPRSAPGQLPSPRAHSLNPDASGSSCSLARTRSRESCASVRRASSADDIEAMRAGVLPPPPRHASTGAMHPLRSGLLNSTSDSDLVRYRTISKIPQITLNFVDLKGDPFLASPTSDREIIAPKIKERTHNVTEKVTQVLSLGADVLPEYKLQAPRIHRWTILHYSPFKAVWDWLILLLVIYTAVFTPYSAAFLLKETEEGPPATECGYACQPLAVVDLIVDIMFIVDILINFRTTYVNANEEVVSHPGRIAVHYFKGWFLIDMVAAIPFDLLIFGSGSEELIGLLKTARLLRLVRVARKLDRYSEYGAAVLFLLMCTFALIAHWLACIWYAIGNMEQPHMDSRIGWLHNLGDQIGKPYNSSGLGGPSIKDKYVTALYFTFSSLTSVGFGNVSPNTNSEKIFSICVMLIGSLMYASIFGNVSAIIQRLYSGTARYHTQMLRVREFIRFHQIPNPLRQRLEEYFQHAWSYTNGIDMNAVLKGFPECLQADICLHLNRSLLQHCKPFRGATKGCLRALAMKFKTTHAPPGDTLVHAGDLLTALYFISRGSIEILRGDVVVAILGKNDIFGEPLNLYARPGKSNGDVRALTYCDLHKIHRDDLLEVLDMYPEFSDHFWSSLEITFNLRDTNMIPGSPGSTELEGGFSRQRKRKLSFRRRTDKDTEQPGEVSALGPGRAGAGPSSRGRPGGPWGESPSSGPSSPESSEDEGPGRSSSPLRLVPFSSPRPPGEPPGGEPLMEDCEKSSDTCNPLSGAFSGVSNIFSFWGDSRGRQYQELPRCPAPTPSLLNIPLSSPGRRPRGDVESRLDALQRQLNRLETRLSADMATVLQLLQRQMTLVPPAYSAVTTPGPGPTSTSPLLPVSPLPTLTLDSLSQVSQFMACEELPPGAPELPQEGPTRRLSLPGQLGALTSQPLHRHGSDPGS

Compound: Cc1cc(C#N)cc(C)c1Oc1nc(Nc2ccc(C#N)cc2)nc2c1CN(Cc1ccc(C(N)=O)cc1)CC2
- IC50 [1]: 123 nM
- EC50 [2]: 7.84 nM
- EC50 [3]: 13.4 nM
- selectivity ratio (in vitro [4]): 15100
- selectivity ratio (in vitro [5]): 914
- EC50 [6]: 67 nM
- EC50 [7]: 111 nM
- EC50 [8]: 85.8 nM
- selectivity ratio (in vitro [9]): 5550
- selectivity ratio (in vitro [10]): 1510
- selectivity ratio (in vitro [11]): 2960
- EC50 [12]: 6.7 nM
- CC50 at 120 h [13]: 101000 nM
- selectivity ratio (in vitro [14]): 12900
- Ratio EC50 [15]: 17
- EC50 [16]: 183 nM
- selectivity ratio (in vitro [17]): 1180
- EC50 [18]: 34.2 nM
- selectivity ratio (in vitro [19]): 7560

Compound: COc1cc(N)c(Cl)cc1C(=O)NC1CCN(CCCOc2ccc(F)cc2)CC1OC (centres undefined) [CISAPRIDE]
- inhibition at 0.1 µM (hERG): 64%

Compound: Cc1cc(C#N)cc(C)c1Oc1nc(Nc2ccc(C#N)cc2)nc(N)c1Br [ETRAVIRINE]
- solubility [20]: < 1 µg/mL
- EC50 [2]: 3.95 nM
- half-life [21]: > 4.82 h
- solubility [22]: < 1 µg/mL
- EC50 [8]: 66.7 nM
- microsomal CLint at 1 h [23]: 21.2 µL/min/mg
- remaining at 1 h [24]: 50.2%
- CLint scaled [25]: 19 mL/min/kg
- CC50 at 120 h [13]: > 4610 nM
- EC50 [16]: 32.1 nM
- half-life [26]: 1.09 h
- remaining at 2 h [27]: 83.2%

Compound: CC(C)[N+](C)(CCOC(=O)C1c2ccccc2Oc2ccccc21)C(C)C.[Br-] [PROPANTHELINE BROMIDE]
- half-life [21]: 0.167 h
- Stability [28]: Unstable
